In US12226405B2, “Compounds and compositions for inhibiting the activity of HIF2-alpha and their methods of use” (Novartis AG, priority 2020, dated 2025) one finds IC50 data, which are given here for 18 compounds.

Assay [1] relates to HIF2α-regulated expression of the endogenous target gene hEGLN3 in 786-O cells. Briefly: Cellular iScript assay for HIF2α (quantitative RT-PCR of hEGLN3). It counts as cell-based, human. To be noted: Homo sapiens, 786-0, 48 hours incubation. In short, it runs like this:
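786-O cells were exposed to eleven 2-fold compound dilutions for 48 h at 37° C. Lysates underwent one-step TaqMan qRT-PCR for hEGLN3 with beta-actin as reference; 2^(−ΔΔCt) versus DMSO, as % of control, was fit with a four-parameter model to give IC50.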

For assay [2], the system named is HIF2α-dependent transcription in 786-O-HRE-Luc cells. Briefly: In vitro cellular hypoxia response element (HRE) reporter gene assay (RGA) for HIF2α. It is filed as cell-based, human. To be noted: Homo sapiens, 24 hours incubation. In short, it runs like this: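 Renal carcinoma cells carrying a 4×HRE-driven PEST-destabilised firefly luciferase were treated a day after seeding with eleven 2-fold compound dilutions (0.1% DMSO) for 24 h at 37° C. BrightGlo luminescence, background-subtracted and expressed as % of DMSO control, was fitted four-parametrically for IC50.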
On the technique in general: A reporter such as luciferase makes a cellular process visible.

Assay [3] has as its target HIF2α PAS-B domain (236-350, biotinylated on the N-terminus) (Homo sapiens (Human), UniProt Q99814).
Protocol: The assay buffer contained 50 mM Tris-HCl pH7 (Sigma), 20 mM NaCl (Fluka), 0.02% BSA (Sigma), 0.005% Triton X-100 (Pierce) and 1 mM DTT (Fluka). After a 30 min incubation period, 5 μL Streptavidin PVT SPA Beads (Perkin Elmer) at 1.2 mg/mL, diluted in the buffer, were added.

Chain of HIF2α PAS-B domain (236-350, biotinylated on the N-terminus) (Q99814 236-350): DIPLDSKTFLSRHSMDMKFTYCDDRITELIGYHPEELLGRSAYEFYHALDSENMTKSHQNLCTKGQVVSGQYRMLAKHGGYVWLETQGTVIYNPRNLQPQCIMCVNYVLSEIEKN

For the compound `COC1=CC(C(F)(F)F)=CN2C[C@@]3(CCCc4c3ccc(Br)c4F)N=C12` [Example 80, (S)-6′-bromo-5′-fluoro-8-methoxy-6-(trifluoromethyl)-3′,4′-dihydro-2′H,3H-spiro[imidazo[1,2-a]pyridine-2,1′-naphthalene]], the IC50 (in general, the concentration that gives 50% inhibition) in assay [1] amounted to 106 nM; in assay [2], 2040 nM; in assay [3], 11 nM.
Consider `FC(F)OC1=CC(C(F)(F)F)=CN2C[C@@]3(CCCc4cc(Cl)ncc43)N=C12` [Example 37, (S)-3′-chloro-8-(difluoromethoxy)-6-(trifluoromethyl)-6′,7′-dihydro-3H,5′H-spiro[imidazo[1,2-a]pyridine-2,8′-isoquinoline]], for which the IC50 in assay [1] stood at 89 nM; in assay [2], 308 nM; in assay [3], 25 nM.
In the same order, the values of `FC(F)OC1=CC(C(F)(F)F)=CN2C[C@@]3(CCOc4c3ccnc4Cl)N=C12` [Example 56, (S)-8′-chloro-8-(difluoromethoxy)-6-(trifluoromethyl)-2′,3′-dihydro-3H-spiro[imidazo[1,2-a]pyridine-2,4′-pyrano[2,3-c]pyridine]] are 164 nM, 6660 nM and 13 nM.
For `Fc1c(Br)ccc2c1C(F)(F)CC[C@@]21CN2C=C(C(F)(F)F)C=C(OC(F)F)C2=N1` [Example 14, (S)-6′-bromo-8-(difluoromethoxy)-4′,4′,5′-trifluoro-6-(trifluoromethyl)-3′,4′-dihydro-2′H,3H-spiro[imidazo[1,2-a]pyridine-2,1′-naphthalene]], the IC50 in assay [1] stood at 57 nM; in assay [2], 146 nM; in assay [3], 9 nM.
In the same order, the values of `FC(F)OC1=CC(C(F)(F)F)=CN2C[C@@]3(CCCc4c3ccnc4Cl)N=C12` [Example 36, (S)-1′-chloro-8-(difluoromethoxy)-6-(trifluoromethyl)-7′,8′-dihydro-3H,6′H-spiro[imidazo[1,2-a]pyridine-2,5′-isoquinoline]] are 73 nM, 147 nM and 6 nM.
In the case of `FC(F)OC1=CC(C(F)(F)F)=CN2C[C@@]3(CCOc4c(Br)cccc43)N=C12` [Example 107, (S)-8-bromo-8′-(difluoromethoxy)-6′-(trifluoromethyl)-3′H-spiro[chromane-4,2′-imidazo[1,2-a]pyridine]], the results for the IC50 in assay [1], in assay [2] and in assay [3] were 189 nM, 807 nM and 7 nM, respectively.
In the same order, the values of `N#Cc1ccc2c(c1F)SCC[C@@]21CN2C=C(C(F)(F)F)C=C(OC(F)F)C2=N1` [Example 111, (S)-8-(difluoromethoxy)-8′-fluoro-6-(trifluoromethyl)-3H-spiro[imidazo[1,2-a]pyridine-2,4′-thiochromane]-7′-carbonitrile] are 43 nM, 100 nM and 9 nM.
`Fc1ccc2c(c1F)CCC[C@@]21CN2C=C(C(F)(F)F)C=C(OC(F)F)C2=N1` [Example 85, (S)-8-(difluoromethoxy)-5′,6′-difluoro-6-(trifluoromethyl)-3′,4′-dihydro-2′H,3H-spiro[imidazo[1,2-a]pyridine-2,1′-naphthalene]]: the figures for the IC50 in assay [1], in assay [2] and in assay [3] were 71 nM, 204 nM and 4 nM, respectively.
Turning to `FC(F)OC1=CC(C(F)(F)F)=CN2C[C@@]3(N=C12)c1ccc(Br)cc1OC[C@@H]3F` [Example 59, (2′S,3R)-7-bromo-8′-(difluoromethoxy)-3-fluoro-6′-(trifluoromethyl)-3′H-spiro[chroman-4,2′-imidazo[1,2-a]pyridine]], the IC50 is 55 nM in assay [1], 73 nM in assay [2] and 12 nM in assay [3].
In the same order, the values of `FC(F)OC1=CC(C(F)(F)F)=CN2C[C@@]3(CCOc4c3ccc(Br)c4Br)N=C12` [Example 102, (S)-7,8-dibromo-8′-(difluoromethoxy)-6′-(trifluoromethyl)-3′ H-spiro[chromane-4,2′-imidazo[1,2-a]pyridine]] are 48 nM, 66 nM and 11 nM.
For `N#CC1=CN2C[C@@]3(CCCc4c3ccc(Br)c4F)N=C2C(OC(F)F)=C1` [Example 13, (S)-6′-bromo-8-(difluoromethoxy)-5′-fluoro-3′,4′-dihydro-2′H,3H-spiro[imidazo[1,2-a]pyridine-2,1′-naphthalene]-6-carbonitrile], the IC50 in assay [1] worked out at 42 nM; in assay [2] it was 113 nM; in assay [3], 5 nM.
As to `FC(F)OC1=CC(C(F)(F)F)=CN2C[C@@]3(N=C12)c1ccc(C(F)(F)F)cc1OC[C@@H]3F` [Example 61, (2′S,3R)-8′-(difluoromethoxy)-3-fluoro-6′,7-bis(trifluoromethyl)-3′H-spiro[chroman-4,2′-imidazo[1,2-a]pyridine]], the results for the IC50 in assay [1], in assay [2] and in assay [3] were 51 nM, 143 nM and 17 nM, respectively.
For `FC(F)OC1=CC(C(F)(F)F)=CN2C[C@@]3(CCc4cc(C(F)(F)F)ncc43)N=C12` [Example 3, (S)-8′-(difluoromethoxy)-3,6′-bis(trifluoromethyl)-5,6-dihydro-3′H-spiro[cyclopenta[c]pyridine-7,2′-imidazo[1,2-a]pyridine]], the IC50 in assay [1] was 187 nM; in assay [2] it was over 10000 nM; in assay [3] it was 12 nM.
In the case of `Cc1ccc2c(c1F)OCC[C@@]21CN2C=C(C(F)(F)F)C=C(OC(F)F)C2=N1` [Example 46, (S)-8′-(difluoromethoxy)-8-fluoro-7-methyl-6′-(trifluoromethyl)-3′H-spiro[chroman-4,2′-imidazo[1,2-a]pyridine]], the IC50 amounted to 50 nM in assay [1], 68 nM in assay [2] and 13 nM in assay [3].
For the compound `FC(F)OC1=CC(C(F)(F)F)=CN2C[C@@]3(CCOc4cc(Br)ccc43)N=C12` [Example 50, (S)-7-bromo-8′-(difluoromethoxy)-6′-(trifluoromethyl)-3′H-spiro[chroman-4,2′-imidazo[1,2-a]pyridine]], the IC50 in assay [1] was 61 nM; in assay [2], 153 nM; in assay [3], at most 10 nM.
The corresponding values for `O=C1CC[C@@]2(CN3C=C(C(F)(F)F)C=C(OC(F)F)C3=N2)c2ccc(Br)c(F)c21` [Example 8, (S)-6′-bromo-8-(difluoromethoxy)-5′-fluoro-6-(trifluoromethyl)-2′H,3H-spiro[imidazo[1,2-a]pyridine-2,1′-naphthalen]-4′(3′H)-one] are 198 nM, 271 nM and 14 nM.
In the same order, the values of `Fc1ccc2c(c1F)OC[C@H](F)[C@@]21CN2C=C(C(F)(F)F)C=C(OC(F)F)C2=N1` [Example 98, (3R,4S)-8′-(difluoromethoxy)-3,7,8-trifluoro-6′-(trifluoromethyl)-3′H-spiro[chromane-4,2′-imidazo[1,2-a]pyridine]] are 104 nM, 120 nM and 17 nM.
As to `FC(F)OC1=CC(C(F)(F)F)=CN2C[C@@]3(CCOc4c3ccc(Br)c4Cl)N=C12` [Example 100, (S)-7-bromo-8-chloro-8′-(difluoromethoxy)-6′-(trifluoromethyl)-3′H-spiro[chromane-4,2′-imidazo[1,2-a]pyridine]], the concentration for half-maximal inhibition (IC50) in assay [1] amounted to 63 nM; in assay [2], 106 nM; in assay [3] it was 4 nM.
